From PubChem BioAssay (NCI)
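96-well plates; 48 h exposure; 5 concentrations. Endpoints by linear interpolation between flanking doses. Not reached: highest tested concentration assigned. TGI denotes the concentration required for complete inhibition of growth.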 Where a SMILES comes first, the peptide text is derived from it. Side-chain parts run from the residue outwards. The star is where a group is joined. Cbz = O=C(OCc1ccccc1)*; Boc = CC(C)(C)OC(=O)*

How the values were obtained:
Assay in all cases: inhibition of tumour cell growth, NCI panel, 48 h
EKVX NSCLC = tested on: EKVX NSCLC
SK-MEL-28 melanoma = tested on: SK-MEL-28 melanoma
MALME-3M melanoma = tested on: MALME-3M melanoma
ACHN renal = tested on: ACHN renal
DU-145 prostate = tested on: DU-145 prostate
UACC-257 melanoma = tested on: UACC-257 melanoma
HCT-116 colon = tested on: HCT-116 colon
OVCAR-8 ovarian = tested on: OVCAR-8 ovarian
RXF 393 renal = tested on: RXF 393 renal
K-562 leukemia = tested on: K-562 leukemia
COLO 205 colon = tested on: COLO 205 colon
NCI/ADR-RES ovarian = tested on: NCI/ADR-RES ovarian
KM12 colon = tested on: KM12 colon
SR leukemia = tested on: SR leukemia
MDA-N = tested on: MDA-N

Structure (SMILES)	TGI (EKVX NSCLC) [µM]	TGI (SK-MEL-28 melanoma) [µM]	TGI (MALME-3M melanoma) [µM]	TGI (ACHN renal) [µM]	TGI (DU-145 prostate) [µM]	TGI (UACC-257 melanoma) [µM]	TGI (HCT-116 colon) [µM]	TGI (OVCAR-8 ovarian) [µM]	TGI (RXF 393 renal) [µM]	TGI (K-562 leukemia) [µM]	TGI (COLO 205 colon) [µM]	TGI (NCI/ADR-RES ovarian) [µM]	TGI (KM12 colon) [µM]	TGI (SR leukemia) [µM]	TGI (MDA-N) [µM]
CCC(=O)N1C(=O)C(CC)(CC)C(=O)N1C(=O)CC	> 100	> 100	> 100	> 100	> 100	> 100	> 100	> 100	> 100	> 100	> 100	> 100	> 100	> 100	> 100
O=C(/C=C/c1ccccc1)Oc1cccc(Br)c1	> 100	> 100	–	> 100	> 100	> 100	> 100	> 100	> 100	–	> 100	> 100	> 100	59.3	> 100
CC(C)=CCC[C@@H](C)C1=CC(=O)C(C)=C(O)C1=O	13.9	31	23.3	10.8	15.7	25.5	11.8	4.83	5.92	5.79	28.3	11.3	16.1	5.98	16.6
C[C@@]12C[C@@H](c3ccccc3O1)N1Cc3ccccc3CSC1=N2	> 100	> 100	> 100	> 100	> 100	> 100	> 100	> 100	> 100	> 100	> 100	> 100	> 100	> 100	> 100
O=C1O[C@H]2C3C4CCC(C4[C@@H]2I)[C@H]13 (some centres undefined)	> 100	> 100	> 100	> 100	> 100	> 100	> 100	> 100	> 100	> 100	> 100	> 100	> 100	> 100	> 100
CC1CCOc2ccc(cc2)C=Nc2ccc(cc2)-c2ccc(cc2)N=Cc2ccc(cc2)OCC1 (centres undefined)	> 100	> 100	–	> 100	> 100	> 100	> 100	> 100	–	> 100	> 100	> 100	> 100	> 100	> 100
COc1ccc(Cn2c3ccc([N+](=O)[O-])cc3c(=O)n2Cc2ccccn2)cc1	> 100	> 100	> 100	> 100	> 100	> 100	> 100	> 100	> 100	> 100	> 100	> 100	> 100	> 100	> 100
CO[C@]12CC(=O)C3(C(C[C@H]4CC5CC[C@H]6C[C@@H](OC(C)=O)CC[C@]6(OC(C)=O)C5C[C@@]43C)C1)C1C[C@H]3[C@@H]4CC[C@H]5C[C@@H](OC(C)=O)CC[C@]5(OC(C)=O)[C@H]4CC[C@]3(C)C12 (some centres undefined)	> 100	> 100	> 100	> 100	> 100	> 100	> 100	> 100	–	> 100	> 100	> 100	> 100	> 100	> 100
O=C(N[C@H]1CCC[C@H]1C(=O)Nc1ccc(C(F)(F)F)cc1)OCc1ccccc1	> 100	> 100	> 100	> 100	> 100	> 100	> 100	> 100	> 100	> 100	> 100	> 100	> 100	> 100	> 100
CN(C)C=NCC(O)c1ccccc1 (centres undefined)	> 100	> 100	> 100	> 100	> 100	–	> 100	–	> 100	> 100	> 100	> 100	> 100	> 100	> 100
COc1cc(C2c3cc(OC)c(OC)c(O)c3C(=O)C3CCC(=O)N32)cc(OC)c1OC (centres undefined)	> 100	> 100	–	> 100	> 100	> 100	> 100	71.4	–	> 100	71.9	> 100	> 100	> 100	34.5
CC(C)C1=C(Cc2ccccc2)C(=O)O/C1=C\c1ccc(O)c(Cl)c1	30.3	30.9	30.6	28.1	32.4	32.8	28.8	33.1	31.2	38.8	34.6	–	32	26.9	30.1
COc1ccc(C2C(C#N)=C(S)N(C3OC(CO)C(O)C(O)C3O)C(C)=C2C(C)=O)cc1 (centres undefined)	–	> 100	> 100	> 100	> 100	> 100	> 100	> 100	> 100	> 100	> 100	> 100	> 100	> 100	> 100
CCN(CC)c1ccc2cc(C(N)=O)c(=Nc3ccc(F)cc3)oc2c1	> 100	> 100	> 100	> 100	–	> 100	> 100	> 100	92	> 100	> 100	> 100	> 100	> 100	> 100
COc1ccc(C2=NNC(c3cc4cc(Br)ccc4nc3Cl)C2)cc1 (centres undefined)	> 25	> 25	–	> 25	> 25	> 25	> 25	–	–	> 25	> 25	–	> 25	> 25	17.8
CC(C)(C)OC(=O)NC(CCCCNC(=O)CNC(=O)OCc1ccccc1)C(=O)NC(CCCCNC(=O)CNC(=O)OCc1ccccc1)C(=O)NC(CCCCNC(=O)CNC(=O)OCc1ccccc1)C(=O)NC(CCCCNC(=O)CNC(=O)OCc1ccccc1)C(=O)O (centres undefined) (Boc-K([Gly-Cbz])K([Gly-Cbz])K([Gly-Cbz])K([Gly-Cbz])-OH; configuration not given here)	–	> 100	> 100	> 100	> 100	> 100	> 100	> 100	–	> 100	–	–	–	> 100	> 100
